Toxic doses and inconclusive results are not listed. Cut-off read from the data, not from the text of the source: active = T/C of 150% or more; inactive = T/C below 125%.
Test system: L1210 leukemia ip in BDF1 mice, survival T/C
Experiment: NCI In Vivo Anticancer Drug Screen. Data for tumor model L1210 Leukemia (intraperitoneal) in B6D2F1 (BDF1) mice
Settings: endpoint: mean survival time, higher = longer survival
Method in brief: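 Tumor was transplanted into mice, which were then dosed with test compound or vehicle alone. Survival was recorded for each group, and the treated figure was expressed relative to the control figure.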

[1] = dose: 100.0 mg/kg/injection, schedule: Q04DX003 (ip), vehicle: saline
[2] = dose: 100.0 mg/kg/injection, schedule: Q01DX001 (ip), vehicle: saline
[3] = dose: 200.0 mg/kg/injection, schedule: Q01DX001 (ip), vehicle: saline
[4] = dose: 400.0 mg/kg/injection, schedule: Q01DX001 (ip), vehicle: saline
[5] = dose: 100.0 mg/kg/injection, schedule: Q01DX009 (ip), vehicle: Klucel (hydroxypropylcellulose) (HPC)
[6] = dose: 100.0 mg/kg/injection, schedule: Q04DX003 (ip), vehicle: Klucel (hydroxypropylcellulose) (HPC)
[7] = dose: 200.0 mg/kg/injection, schedule: Q01DX009 (ip), vehicle: Klucel (hydroxypropylcellulose) (HPC)
[8] = dose: 200.0 mg/kg/injection, schedule: Q04DX003 (ip), vehicle: Klucel (hydroxypropylcellulose) (HPC)
[9] = dose: 400.0 mg/kg/injection, schedule: Q01DX009 (ip), vehicle: Klucel (hydroxypropylcellulose) (HPC)
[10] = dose: 400.0 mg/kg/injection, schedule: Q04DX003 (ip), vehicle: Klucel (hydroxypropylcellulose) (HPC)
[11] = dose: 100.0 mg/kg/injection, schedule: Q01DX009 (ip), vehicle: saline with Tween-80
[12] = dose: 200.0 mg/kg/injection, schedule: Q01DX009 (ip), vehicle: saline with Tween-80
[13] = dose: 200.0 mg/kg/injection, schedule: Q01DX001 (ip), vehicle: other
[14] = dose: 100.0 mg/kg/injection, schedule: Q01DX001 (ip), vehicle: carboxymethylcellulose (CMC)
[15] = dose: 200.0 mg/kg/injection, schedule: Q01DX001 (ip), vehicle: carboxymethylcellulose (CMC)
[16] = dose: 400.0 mg/kg/injection, schedule: Q01DX001 (ip), vehicle: carboxymethylcellulose (CMC)
[17] = dose: 100.0 mg/kg/injection, schedule: Q04DX002 (ip), vehicle: Klucel (hydroxypropylcellulose) (HPC)
[18] = dose: 400.0 mg/kg/injection, schedule: Q04DX003 (ip), vehicle: saline with Tween-80
[19] = dose: 25.0 mg/kg/injection, schedule: Q01DX009 (ip), vehicle: saline
[20] = dose: 50.0 mg/kg/injection, schedule: Q01DX009 (ip), vehicle: saline
[21] = dose: 50.0 mg/kg/injection, schedule: Q01DX001 (ip), vehicle: saline

Measured: T/C

CC(=O)C(=O)N1Cc2cc3ccccc3nc2C1
inactive: [1] 115 % of control | dose: 200.0 mg/kg/injection, schedule: Q04DX003 (ip), vehicle: saline 102 % of control | dose: 400.0 mg/kg/injection, schedule: Q04DX003 (ip), vehicle: saline 102 % of control

CC(=O)CCCCC(C)=O
inactive: [2] 98 % of control | [3] 101 % of control | [4] 104 % of control

O=C(COc1ccc(Cl)cc1)Nc1ccccc1F
inactive: [5] 88 % of control | [6] 95 % of control | [7] 89 % of control | [8] 88 % of control | [9] 91 % of control | [10] 90 % of control

CC(O)c1cccc(NC(=O)Nc2ccc(Cl)c(Cl)c2)c1 (configuration not stated)
inactive: [5] 96 % of control | [7] 98 % of control | [9] 96 % of control

CS(=O)(=O)CCC(NC(=O)NCCCl)C(=O)O (configuration not stated)
inactive: dose: 100.0 mg/kg/injection, schedule: Q01DX001 (ip), vehicle: Klucel (hydroxypropylcellulose) (HPC) 104 % of control | dose: 200.0 mg/kg/injection, schedule: Q01DX001 (ip), vehicle: Klucel (hydroxypropylcellulose) (HPC) 96 % of control | dose: 400.0 mg/kg/injection, schedule: Q01DX001 (ip), vehicle: Klucel (hydroxypropylcellulose) (HPC) 100 % of control

Cc1ccccc1C(c1ccccc1)C(CC(=O)O)CC(=O)O (configuration not stated)
inactive: [11] 96 % of control | dose: 100.0 mg/kg/injection, schedule: Q04DX003 (ip), vehicle: other 100 % of control | [12] 95 % of control | dose: 200.0 mg/kg/injection, schedule: Q04DX003 (ip), vehicle: other 103 % of control | dose: 400.0 mg/kg/injection, schedule: Q01DX009 (ip), vehicle: saline with Tween-80 93 % of control | dose: 400.0 mg/kg/injection, schedule: Q04DX003 (ip), vehicle: other 106 % of control

CC(=O)OC1COC(SC(C)=O)C(OC(C)=O)C1OC(C)=O (configuration not stated)
inactive: dose: 100.0 mg/kg/injection, schedule: Q01DX001 (ip), vehicle: other 95 % of control | [13] 104 % of control | dose: 400.0 mg/kg/injection, schedule: Q01DX001 (ip), vehicle: other 95 % of control

CCC[N+]1=C(/C=C/c2ccc3cccnc3c2O)C(C)(C)c2ccccc21
inactive: [14] 95 % of control | [15] 98 % of control | [16] 93 % of control

COc1ccc(O)c2c(C(=O)c3ccccc3)c[nH]c12
inactive: dose: 25.0 mg/kg/injection, schedule: Q04DX002 (ip), vehicle: Klucel (hydroxypropylcellulose) (HPC) 87 % of control | dose: 50.0 mg/kg/injection, schedule: Q04DX002 (ip), vehicle: Klucel (hydroxypropylcellulose) (HPC) 95 % of control | [17] 95 % of control

CCCc1cc2c3c(c(=O)oc2cc1OC)CCCC3
inactive: dose: 100.0 mg/kg/injection, schedule: Q04DX003 (ip), vehicle: saline with Tween-80 93 % of control | dose: 200.0 mg/kg/injection, schedule: Q04DX003 (ip), vehicle: saline with Tween-80 104 % of control | [18] 93 % of control

NC(=O)C(Br)CBr (configuration not stated)
inactive: [19] 98 % of control | [20] 95 % of control | [1] 101 % of control

COc1cc(Br)c(CC2c3cc(OC)c(OC)cc3CC[N+]2(C)C)cc1OC (configuration not stated)
inactive: dose: 100.0 mg/kg/injection, schedule: Q01DX001 (ip), vehicle: water 100 % of control | dose: 100.0 mg/kg/injection, schedule: Q01DX009 (ip), vehicle: water 101 % of control | dose: 100.0 mg/kg/injection, schedule: Q04DX003 (ip), vehicle: water 100 % of control | dose: 200.0 mg/kg/injection, schedule: Q01DX001 (ip), vehicle: water 102 % of control | dose: 200.0 mg/kg/injection, schedule: Q01DX009 (ip), vehicle: water 87 % of control | dose: 200.0 mg/kg/injection, schedule: Q04DX003 (ip), vehicle: water 97 % of control | dose: 400.0 mg/kg/injection, schedule: Q01DX001 (ip), vehicle: water 100 % of control | dose: 400.0 mg/kg/injection, schedule: Q04DX003 (ip), vehicle: water 91 % of control

CCOc1ccc(NC(=O)C(C(C)N2CCCCC2)N2CCCCC2)cc1 (configuration not stated)
inactive: dose: 12.5 mg/kg/injection, schedule: Q01DX001 (ip), vehicle: saline 94 % of control | dose: 12.5 mg/kg/injection, schedule: Q01DX009 (ip), vehicle: saline 95 % of control | dose: 12.5 mg/kg/injection, schedule: Q04DX003 (ip), vehicle: saline 97 % of control | dose: 25.0 mg/kg/injection, schedule: Q01DX001 (ip), vehicle: saline 95 % of control | [19] 92 % of control | dose: 25.0 mg/kg/injection, schedule: Q04DX003 (ip), vehicle: saline 95 % of control | [21] 90 % of control | [20] 91 % of control | dose: 50.0 mg/kg/injection, schedule: Q04DX003 (ip), vehicle: saline 92 % of control

CCCNC(=O)c1cccc(-c2cccc(C(=O)NCCC)c2)c1
inactive: [13] 93 % of control

Nc1nc(N)c(N)c(N=O)n1
inactive: dose: 100.0 mg/kg/injection, schedule: Q01DX Z (ip), vehicle: methylcellulose (MC) 86 % of control

COc1ccc(C(CC(=O)c2ccccc2)CC(=O)c2ccccc2)cc1
inactive: [18] 87 % of control

CC(C)CCCC(C)C1CCC2C3CC(O)C4=CCCCC4(C)C3CCC12C (configuration not stated)
inactive: dose: 9.38 mg/kg/injection, schedule: Q01DX001 (ip), vehicle: other 97 % of control | dose: 18.75 mg/kg/injection, schedule: Q01DX001 (ip), vehicle: other 94 % of control | dose: 37.5 mg/kg/injection, schedule: Q01DX001 (ip), vehicle: other 94 % of control

COc1ccc2c(c1)OC(OC)(c1ccccc1)C(O)(OC)C2=O (configuration not stated)
inactive: [21] 96 % of control | [2] 98 % of control | [3] 96 % of control | [4] 98 % of control

CC(=O)OC(C1C[C@@]2(C)[C@@H](CC[C@@H]3[C@@H]2CC[C@]2(C)[C@@H](OC(C)=O)CC[C@@H]32)CC1=O)C(F)(F)F (some centres not stated)
inactive: dose: 50.0 mg/kg/injection, schedule: Q01DX009 (ip), vehicle: carboxymethylcellulose (CMC) 97 % of control | dose: 100.0 mg/kg/injection, schedule: Q01DX009 (ip), vehicle: carboxymethylcellulose (CMC) 89 % of control | dose: 200.0 mg/kg/injection, schedule: Q01DX009 (ip), vehicle: carboxymethylcellulose (CMC) 95 % of control

O=S1(=O)C2CCCCCC2(N2CCOCC2)C1c1ccccc1 (configuration not stated)
inactive: [17] 101 % of control | dose: 200.0 mg/kg/injection, schedule: Q04DX002 (ip), vehicle: Klucel (hydroxypropylcellulose) (HPC) 97 % of control | dose: 400.0 mg/kg/injection, schedule: Q04DX002 (ip), vehicle: Klucel (hydroxypropylcellulose) (HPC) 93 % of control

CC1CN=C(c2ccc(NC(=O)Nc3ccc(C4=NCCN4)cc3)cc2)N1 (configuration not stated)
inactive: dose: 1.88 mg/kg/injection, schedule: Q01DX Z (ip), vehicle: saline 112 % of control | dose: 3.75 mg/kg/injection, schedule: Q01DX Z (ip), vehicle: saline 113 % of control

Ic1sc(I)c(I)c1I
inactive: [14] 95 % of control | [15] 93 % of control | [16] 104 % of control

CCCCCCCCCCCC(=O)N(C)CC(=O)O
inactive: [2] 96 % of control

CCC1(c2ccccc2)C(=O)N(C)C(=O)N(CBr)C1=O (configuration not stated)
inactive: [11] 109 % of control | dose: 100.0 mg/kg/injection, schedule: Q04DX002 (ip), vehicle: saline with Tween-80 92 % of control | [12] 106 % of control | dose: 200.0 mg/kg/injection, schedule: Q04DX002 (ip), vehicle: saline with Tween-80 98 % of control | dose: 400.0 mg/kg/injection, schedule: Q04DX002 (ip), vehicle: saline with Tween-80 103 % of control

O=C(O)CN(Cc1ccccc1)Cc1ccccc1
inactive: [6] 95 % of control | [8] 98 % of control | [10] 98 % of control

CC(=O)OC1=C(c2c(C)cc(C)c(Br)c2C)C(=O)C(OC(C)=O)=C(c2c(C)cc(C)c(Br)c2C)C1=O
inactive: [6] 104 % of control | [8] 100 % of control | [10] 98 % of control

O=[N+]([O-])c1cc2cnn(CCl)c2cc1[N+](=O)[O-]
inactive: [2] 103 % of control | [3] 111 % of control | [4] 109 % of control
